How the values were obtained:
Pin1 [1] = molecular target: Pin1 (Homo sapiens, UniProt Q13526, M130I); assay: PPIase assay (Supplementary Fig. 2e); assay type: biochemical
Pin1 [2] = molecular target: T1, Pin1 (Homo sapiens, UniProt Q13526); assay: biotin-ATO pulldown with immunoblot, dose-dependent, competed by ATO; assay type: binding
T1 construct: recombinant Pin1

| Compound | PPIase assay (Supplementary Fig. 2e) (Pin1 [1]) | Kd (Pin1 [2]) |
| --- | --- | --- |
| O=[As]O[As]=O (centres unmarked) [ATO, Arsenic trioxide] | ATO dose-dependently inhibited the PPIase activity of Pin1 M130I, but not Pin1 M130V mutant |  |
| biotin-ATO |  | 238 nM |

Source: article PMC6085299 (Nature Communications, 2018)
